For this experiment, the system named is HCV (1b) replicon, Huh-ET cells. The experiment is described as follows: Cell-based luciferase reporter HCV (1b) RNA replication assay. The conditions noted are these: Hepatitis C virus, 96 h; HCV 1b replicon, luciferase, 4 days incubation; read-out: EC50_1b. The text has this: Cell-Based Luciferase Reporter HCV (Ib) RNA Replication Assay Cell Culture
Replicon cell lines Huh-5.2 are derived from the Huh-7 hepatocarcinoma cell line are maintained in culture as generally described in Krieger, N; Lohmann, V; Bartenschlager, R. Enhancement of hepatitis C virus RNA replication by cell culture-adaptive mutations. J. Virol. 2001, 75, 4614-4624. The Huh-5.2 cells contain the highly cell culture-adapted replicon I389luc-ubi-neo/NS3-375.1 construct that carries, in addition to the neomycin gene, an integrated copy to the firefly luciferase gene (Krieger, N; Lohmann, V; Bartenschlager, R. Enhancement of hepatitis C virus RNA replication by cell culture-adaptive mutations. J. Virol. 2001, 75, 4614-4624). This cell line allows measurement of HCV RNA replication and translation by measuring luciferase activity. It has been previously shown that the luciferase activity tightly follows the replicon RNA level in these cells (Krieger, N; Lohmann, V; Bartenschlager, R. Enhancement of hepatitis C virus RNA replication by cell culture-adaptive mutations. J. Virol. 2001, 75, 4614-4624). The Huh-ET cell line has the same features as those mentioned for Huh-5.2 cell line, except that ET cells are more robust and contain an adaptative mutation in the HCV NS4B gene instead of NS5A. Both cell lines are maintained in cultures at a sub-confluent level (<85%) as the level of replicon RNA is highest in actively proliferating cells. The culture media used for cell passaging consist of DMEM (Gibco BRL Laboratories, Mississauga, ON, Canada) supplemented with 10% foetal bovine serum with 1% penicilin/streptomycin, 1% glutamine, 1% sodium pyruvate, 1% non-essential amino acids, and 180 μg/ml of G418 final concentration. Cells are incubated at 37° C., in an atmosphere of 5% CO2 and passaged twice a week to maintain sub-confluence.
Approximately 3000 viable Huh-ET cells (100 μl) are plated per well in a white opaque 96-well microtiter plate. The cell culture media used for the assay is the same as described above except that it contains no G418 and no phenol red. After an incubation period of 3-4 hours at 37° C. in a 5% CO2 incubator, compounds (100 μl) are added at various concentrations. Cells are then further incubated for 4 days at 37° C. in a 5% CO2 incubator. Thereafter, the culture media is removed and cells are lysed by the addition of 95 μL of the luciferase buffer (luciferin substrate in buffered detergent). Cell lysates are incubated at room temperature and protected from direct light for at least 10 minutes. Plates are read for luciferase counts using a luminometer (Wallac MicroBeta Trilux, Perkin Elmer™, MA, USA).
Curves are fitted to data points using nonlinear regression analysis, and IC50s are interpolated from the resulting curve using GraphPad Prism software, version 2.0 (GraphPad Software Inc., San Diego, Calif., USA).
Turning to `COC(=O)N[C@H](C(=O)N1C[C@@H](C)C[C@H]1c1nc(-c2ccc(-c3ccc4nc([C@@H]5C[C@H](C)CN5C(=O)[C@@H](NC(=O)OC)C(C)C)[nH]c4c3)cc2)c(-c2cc3sccc3s2)[nH]1)C(C)C` [Compound 26], the EC50 is not above 5 nM. The value for `COC(=O)N[C@H](C(=O)N1C[C@@H](C)C[C@H]1c1nc(-c2cc3sc(-c4ccc5[nH]c([C@@H]6C[C@H](C)CN6C(=O)[C@@H](NC(=O)OC)C(C)C)nc5c4)cc3s2)c(C)[nH]1)C(C)C` [Compound 19] was not above 5 nM; that for `[2H]c1c([2H])c(-c2ccc3[nH]c([C@@H]4C[C@H](C)CN4C(=O)[C@@H](NC(=O)OC)C(C)C)nc3c2)c([2H])c([2H])c1-c1ccc(-c2c[nH]c([C@@H]3C[C@H](C)CN3C(=O)[C@@H](NC(=O)OC)C(C)C)n2)cc1` [Compound 52] was not above 5 nM; that for `COC(=O)N[C@H](C(=O)N1C[C@@H](C)CC1c1nc2cc(C#Cc3ccc(C#Cc4cnc([C@@H]5C[C@H](C)CN5C(=O)[C@@H](NC(=O)OC)C(C)C)[nH]4)cc3)ccc2[nH]1)C(C)C` (stereo partly drawn) [Compound 29] was not above 5 nM. The value for `COC(=O)N[C@H](C(=O)N1C[C@@H](C)C[C@H]1c1nc(-c2cc3cc(-c4ccc5[nH]c([C@@H]6C[C@H](C)CN6C(=O)[C@@H](NC(=O)OC)C(C)C)nc5c4)sc3s2)c[nH]1)C(C)C` [Compound 43] was not above 5 nM. In the case of `COC(=O)N[C@H](C(=O)N1C[C@@H](C)C[C@H]1c1ncc(-c2ccc(-c3ccc(-c4ccc5[nH]c([C@@H]6C[C@H](C)CN6C(=O)[C@H](C(C)C)N(C)C(=O)OC)nc5c4)cc3)cc2)[nH]1)C(C)C` [Compound 7, ((S)-1-{(2S,4S)-2-[5-(4′-{2-[(2S,4S)-1-((S)-2-Methoxycarbonylamino-3-methyl-butyryl)-4-methyl-pyrrolidin-2-yl]-1H-imidazol-4-yl}-biphenyl-4-yl)-1H-benzoimidazol-2-yl]-4-methyl-pyrrolidine-1-carbonyl}-2-methyl-propyl)-methyl-carbamic acid methyl ester], the EC50 was not above 5 nM.

For the compound `COC(=O)N[C@H](C(=O)N1C[C@@H](C)C[C@H]1c1ncc(-c2ccc(-c3cc4sc(-c5ccc6nc([C@@H]7C[C@H](C)CN7C(=O)[C@@H](NC(=O)OC)C(C)C)[nH]c6c5)cc4s3)cc2)[nH]1)C(C)C` [Compound 25], the EC50 was not above 5 nM. For `COC(=O)N[C@H](C(=O)N1C[C@@H](C)C[C@H]1c1nc(-c2ccc(-c3ccc(-c4ccc5[nH]c([C@@H]6C[C@H](C)CN6C(=O)[C@@H](NC(=O)OC)C(C)C)nc5c4)c4c3OCO4)cc2)c[nH]1)C(C)C` [Compound 30], the EC50 is not above 5 nM. On to `O=C(OCc1ccccc1)N1CCCC1c1ncc(-c2ccc(C#Cc3ccc4[nH]c(C5CCCCN5C(=O)OCc5ccccc5)nc4c3)cc2)[nH]1` (stereo not drawn) [Compound 1], for which the EC50 lay in the range of 5 to 5000 nM. The result for `COC(=O)N[C@H](C(=O)N1C[C@@H](C)C[C@H]1c1nc(-c2ccc3cc(-c4ccc5[nH]c([C@@H]6C[C@H](C)CN6C(=O)[C@@H](NC(=O)OC)C(C)C)nc5c4)ccc3c2)c[nH]1)C(C)C` [Compound 20] reads not above 5 nM; that for `COC(=O)N[C@H](C(=O)N1C[C@@H](C)C[C@H]1c1nc(C#Cc2cc3sc(-c4ccc5[nH]c([C@@H]6C[C@H](C)CN6C(=O)[C@@H](NC(=O)OC)C(C)C)nc5c4)cc3s2)c[nH]1)C(C)C` [Compound 44], not above 5 nM. Take `COC(=O)N(C)[C@H](C(=O)N1C[C@@H](C)C[C@H]1c1ncc(-c2ccc(-c3ccc(-c4ccc5[nH]c([C@@H]6C[C@H](C)CN6C(=O)[C@H](C(C)C)N(C)C(=O)OC)nc5c4)cc3)cc2)[nH]1)C(C)C` [Compound 6, Methyl N-[(1S)-1-[(2S,4S)-2-[4-[4-[4-[2-[(2S,4S)-1-[(2S)-2-[methoxycarbonyl(methyl)amino]-3-methyl-butanoyl]-4-methyl-pyrrolidin-2-yl]-1H-benzimidazol-5-yl]phenyl]phenyl]-1H-imidazol-2-yl]-4-methyl-pyrrolidine-1-carbonyl]-2-methyl-propyl]-N-methyl-carbamate]: the EC50 was not above 5 nM. For the compound `O=C(OCc1ccccc1)N1CCC[C@H]1c1ncc(-c2ccc(C#Cc3ccc4[nH]c([C@@H]5CCCN5C(=O)OCc5ccccc5)nc4c3)cc2)[nH]1` [Compound 2], the EC50 was in the range of 5 to 5000 nM. Regarding `COC(=O)N[C@H](C(=O)N1C[C@@H](C)C[C@H]1c1nc(-c2ccc(-c3ccc(-c4ccc5[nH]c([C@@H]6C[C@H](C)CN6C(=O)[C@@H](NC(=O)OC)C(C)C)nc5c4)s3)cc2)c[nH]1)C(C)C` [Compound 27], the EC50 is not above 5 nM.

On to `COC(=O)N[C@H](C(=O)N[C@H](C(=O)N1C[C@@H](C)C[C@H]1c1nc2cc(-c3ccc(-c4ccc(-c5c[nH]c([C@@H]6C[C@H](C)CN6C(=O)[C@@H](NC(=O)OC)C(C)C)n5)cc4)cc3)ccc2[nH]1)C(C)C)C(C)C` [Compound 56], for which the EC50 is not above 5 nM. In the case of `COC(=O)N[C@H](C(=O)N[C@H](C(=O)N1C[C@@H](C)C[C@H]1c1nc(-c2ccc(-c3ccc(-c4ccc5[nH]c([C@@H]6C[C@H](C)CN6C(=O)[C@@H](NC(=O)OC)C(C)C)nc5c4)cc3)cc2)c[nH]1)C(C)C)C(C)C` [Compound 55], the EC50 was not above 5 nM. On to `COC(=O)N[C@H](C(=O)N1C[C@@H](C)C[C@H]1c1nc2cc(-c3ccc(-c4ccc(-c5c[nH]c([C@@H]6C[C@H](C)CN6)n5)cc4)cc3)ccc2[nH]1)C(C)C` [Compound 51], for which the EC50 is not above 5 nM. The value for `COC(=O)N[C@H](C(=O)N1C[C@@H](C)C[C@H]1c1nc(-c2ccc3cc(-c4ccc5[nH]c([C@@H]6C[C@H](C)CN6C(=O)[C@@H](NC(=O)OC)C(C)C)nc5c4)sc3c2)c[nH]1)C(C)C` [Compound 41] was not above 5 nM. The result for `COC(=O)N[C@H](C(=O)N1C[C@@H](C)C[C@H]1c1nc(-c2ccc(-c3ccc(-c4cc5nc([C@@H]6C[C@H](C)CN6C(=O)[C@@H](NC(=O)OC)C(C)C)[nH]c5cc4C)cc3)cc2)c[nH]1)C(C)C` [Compound 35] reads not above 5 nM. `COC(=O)N[C@H](C(=O)N1C[C@@H](C)CC1c1nc2cc(-c3ccc4nc(-c5c[nH]c([C@@H]6C[C@H](C)CN6C(=O)[C@@H](NC(=O)OC)C(C)C)n5)cn4c3)ccc2[nH]1)C(C)C` (stereo partly drawn) [Compound 42]: the EC50 lay within 5 to 5000 nM. The value for `COC(=O)N[C@H](C(=O)N1C[C@@H](C)C[C@H]1c1nc2cc(-c3ccc(-c4ccc(-c5cnc([C@@H]6C[C@H](C)CN6C(=O)[C@H](C(C)C)N(C)C(=O)OC)[nH]5)cc4)cc3)ccc2[nH]1)C(C)C` [Compound 8, Methyl ((S)-1-((2S,4S)-2-(4-(4′-(2-((2S,4S)-1-((S)-2-((methoxycarbonyl)amino)-3-methylbutanoyl)-4-methylpyrrolidin-2-yl)-3H-benzo[d]imidazol-6-yl)-[1,1′-biphenyl]-4-yl)-1H-imidazol-2-yl)-4-methylpyrrolidin-1-yl)-3-methyl-1-oxobutan-2-yl)(methyl)carbamate] was not above 5 nM; that for `COC(=O)NC(C(=O)N1C[C@@H](C)C[C@H]1c1nc2cc(C#Cc3cc4sc(-c5c[nH]c([C@@H]6C[C@H](C)CN6C(=O)[C@@H](NC(=O)OC)C(C)C)n5)cc4s3)ccc2[nH]1)C(C)C` (stereo partly drawn) [Compound 45] was not above 5 nM. For the compound `COC(=O)N[C@H](C(=O)N1C[C@@H](C)C[C@H]1c1ncc(-c2ccc(-c3ccc(-c4ccc5[nH]c([C@@H]6C[C@H](C)CN6C(=O)[C@@H](NC(=O)OC)C(C)C)nc5c4)c(C)c3)cc2C)[nH]1)C(C)C` [Compound 31], the EC50 was not above 5 nM.

`COC(=O)N[C@H](C(=O)N1C[C@@H](C)C[C@H]1c1nc(-c2ccc3sc(-c4ccc5[nH]c([C@@H]6C[C@H](C)CN6C(=O)[C@@H](NC(=O)OC)C(C)C)nc5c4)cc3c2)c[nH]1)C(C)C` [Compound 33]: the EC50 was not above 5 nM. For the compound `COC(=O)N[C@H](C(=O)N1C[C@@H](C)C[C@H]1c1ncc(-c2csc(-c3ccc(-c4ccc5[nH]c([C@@H]6C[C@H](C)CN6C(=O)[C@@H](NC(=O)OC)C(C)C)nc5c4)cc3)c2)[nH]1)C(C)C` [Compound 14], the EC50 was not above 5 nM. The result for `CC[C@H]1C[C@@H](c2nc(-c3ccc(-c4ccc(-c5ccc6[nH]c([C@@H]7C[C@H](CC)CN7C(=O)[C@@H](NC(=O)OC)C(C)C)nc6c5)cc4)cc3)c[nH]2)N(C(=O)[C@@H](NC(=O)OC)C(C)C)C1` [Compound 17] reads not above 5 nM; that for `COC(=O)N[C@H](C(=O)N1C[C@@H](C)C[C@H]1c1nc(-c2ccc(-c3ccc(-c4cc(C)c5[nH]c([C@@H]6C[C@H](C)CN6C(=O)[C@@H](NC(=O)OC)C(C)C)nc5c4)cc3)cc2)c[nH]1)C(C)C` [Compound 28], not above 5 nM.

Source of the values: patent US8779156B2, “Analogues for the treatment or prevention of flavivirus infections” (Vertex Pharmaceuticals Incorporated, priority 2010, dated 2014).
